This assay deals with HepG2-A16-CD81EGFP cells. Particulars: for IC50: read-out: Tox_IC50, HepG2 cytotoxicity.
Setting [1] is: sheet 2nd round, maximal inhibition in dose response.
Where [2] appears, read: 2nd round, maximal inhibition in dose series.

Where two headings read alike, the source gives them in different places.

Take `O=C(Nc1cccc(F)c1)N1CCCCN2[C@H](CO)[C@@H](c3ccc(C#Cc4cccnc4)cc3)[C@@H]2C1` [BRD-K43947390-001-01-2]: the IC50 (sheet 2nd round) is more than 10 µM. Moreover, under setting [1], the “Tox_max_inhibition (%)” value was determined as 5.34%.
As for `CCCNC(=O)N1[C@H](C#N)[C@H](c2ccc(-c3ccccc3F)cc2)[C@H]1CO` [BRD-K88402291-001-01-4], under “sheet "2nd round"”, the IC50 was more than 10 µM and the “Tox_max_inhibition (%)” value is reported as 3%.
Consider `CCCN1C[C@H](C)[C@@H](OC)CN(C)C(=O)c2cc(NC(=O)Nc3cccc(F)c3)ccc2OC[C@H]1C` [BRD-K02315086-001-01-0], for which, where the note is “sheet 2nd round”, the IC50 was more than 10 µM. In addition, under setting [1], the “Tox_max_inhibition (%)” value is given as 10%.
With `C[C@H]1CN([C@@H](C)CO)C(=O)c2cccc(NC(=O)c3ccc(-c4nccs4)cc3)c2O[C@H]1CN(C)C(=O)Nc1ccc(C(F)(F)F)cc1` [BRD-K73614094-001-01-0], the “Tox_max_inhibition (%)” value under setting [2] turned out to be 12%. For the setting “2nd round, unit inferred”, the IC50 was more than 10 µM.
For `N#Cc1ccc(-c2ccc(C3[C@@H]4CN(C(=O)Nc5ccc6c(c5)OCO6)C[C@H]3N4)cc2)cc1` (stereo partly shown) [BRD-K65395967-019-01-2] the same measures were 28% and more than 10 µM.
As for `O=C(C1CC1)N1C[C@@H]2N[C@H](C1)C2c1ccc(-c2ccccc2F)cc1` (stereo partly shown) [BRD-K95724677-019-01-8], for the setting “sheet 2nd round”, the IC50 was found to be 3.72 µM. Also, the “Tox_max_inhibition (%)” value under setting [1] is given as 93%.
With `C[C@@H]1CN([C@H](C)CO)C(=O)c2c(c3ccccc3n2C)-c2ccccc2CO[C@@H]1CN(C)S(=O)(=O)c1ccc([N+](=O)[O-])cc1` [BRD-K04605557-001-01-2], for the setting “sheet 2nd round”, the IC50 is more than 10 µM. The “Tox_max_inhibition (%)” value under setting [1] amounted to 13%.
For `CS(=O)(=O)N1C[C@@H]2N[C@H](C1)C2c1ccc(-c2ccccc2)cc1` (stereo partly shown) [BRD-K16971439-019-01-0], in that order: more than 10 µM and 5%.
For `N#C[C@H]1N[C@H](CO)[C@H]1c1ccc(C#CC2CCCCC2)cc1` [BRD-K74656908-001-01-6], in that order: more than 10 µM and 6%.
`C(=C\c1ccc(C2[C@@H]3CN(Cc4nccs4)C[C@H]2N3)cc1)/c1ccccc1` (stereo partly shown) [BRD-K82593502-019-01-3]: the “Tox_max_inhibition (%)” value under setting [2] stood at 13%. Further, the IC50 (2nd round, unit inferred) was more than 10 µM.
With `O=C(Nc1ccccc1F)N1CCCCN2[C@H](CO)[C@@H](c3ccc(/C=C/c4ccccc4)cc3)[C@H]2C1` [BRD-K46850496-001-01-8], the IC50 (sheet 2nd round) is more than 10 µM. The “Tox_max_inhibition (%)” value under setting [1] was determined as 11%.
For `N#C[C@H]1[C@H](c2ccc(-c3cccc(F)c3)cc2)[C@@H](CO)N1C(=O)NC1CCCC1` [BRD-K69441790-001-01-1] the same measures were 9.7 µM and 57%.
For `COc1ccc(C#Cc2ccc([C@@H]3[C@@H](CO)N4CCCCN(C(=O)Nc5cccc(F)c5)C[C@H]34)cc2)cc1` [BRD-K38867404-001-01-3] the same measures were more than 10 µM and 4%.
`CCCC(=O)Nc1ccc2c(c1)OC[C@@H](C)N(Cc1cc(F)ccc1F)C[C@@H](C)[C@H](OC)CN(C)C2=O` [BRD-K36104357-001-01-0]: for the setting “sheet "2nd round"”, the IC50 was more than 10 µM and the “Tox_max_inhibition (%)” value is reported as 18%.
For the molecule `COc1ccc(C(=O)N2C[C@@H]3[C@H](c4ccccc42)[C@H](CO)N3C(=O)Cc2ccccn2)cc1` [BRD-K13582094-001-01-2], where the note is “sheet 2nd round”, the IC50 was more than 10 µM. Besides, the “Tox_max_inhibition (%)” value under setting [1] came to 4%.
As for `C[C@H](CO)N1C[C@H](C)[C@@H](CN(C)Cc2ccccc2)Oc2c(NC(=O)Cc3cn(C)c4ccccc34)cccc2C1=O` [BRD-K71196168-001-01-1], for the setting “sheet "2nd round"”, the IC50 was more than 10 µM and the “Tox_max_inhibition (%)” value was 44%.
Consider `COc1ccc(NC(=O)N2CCCCN3[C@H](CO)[C@H](c4ccc(C#Cc5ccccc5)cc4)[C@@H]3C2)cc1` [BRD-K83953444-001-02-5], for which the IC50 (sheet 2nd round) was more than 10 µM. For the same molecule, the “Tox_max_inhibition (%)” value under setting [1] was found to be 55%.

For the origin of these results see paper PMC4890880 (ACS infectious diseases, 2016).
